From BindingDB's records for doi:10.1021/jm201702g (Ambit Biosciences, 2012)

Experiment: Inhibition of Aurora kinase B in human HCT116 cells assessed as induction of 8N polyploidy

Structure (SMILES) | EC50
Cc1cc(Nc2nc(Sc3ccc(NC(=O)CN4CC[C@@H](C(=O)NC5CCCC5)C4)cc3)nn3cccc23)n[nH]1 | 3 nM
Cc1cc(Nc2nc(Sc3ccc(NC(=O)CN4CC[C@@H](C(=O)N5CCC(F)(F)C5)C4)cc3)nn3cccc23)n[nH]1 | 3 nM
